Experimental data reported in patent US20080044484A1, “Use of polymeric nanoparticles for vaccine delivery” (THE REGENTS OF THE UNIVERSITY OF CALIFORNIA, priority 2004, published 2008).

Legend:
[1] = test system: peptide-loaded MDA-MB-231 cells; assay: Mechanisms of peptide loading: acid stripping, pronase, Brefeldin A, 51Cr-release; type: cell-based, human
Text: To distinguish between loading of the peptides into the cytosol and simple binding of these peptides to the surface MHC molecules several approaches were used. First, β2-microglobulin was removed from the surface of peptide-loaded tumor cells by acid stripping. […] Second, pronase was used for complete enzymatic digestion of HLA molecules on the cell surface after loading in order to be able to detect the appearance of new internally formed HLA-peptide complexes on the cell surface, but not pulsing of the cells. Third, Brefeldin A (BFA), a metabolite of the fungus Eupenicillium brefeldianum, was used which specifically blocks protein transport from the ER to Golgi apparatus.
These experiments confirmed that the antigenic peptides were introduced into the cytosol of the cells, resulting in a prolonged and more efficient antigen presentation.

LnCap (HLA-A2+) = assay: LDH-release cytotoxicity assay of STEAP-specific CTL against prostate cancer cell line; type: cell-based, human; details: CTL specific for the peptide; 4-hour LDH-release assay
Experimental: (§1) It was tested whether the STEAP-derived peptides can induce potent CTL capable of recognizing and killing prostate cancer cells in vitro. CTL lines selected for their ability to lyse peptide-pulsed target cells were used as effectors in LDH-release cytotoxicity assays against the cancer cell lines. The HLA-A2+ cancer cell line LnCAP was used, with the HLA-A2−negative cancer cell line DU145 as a control (Table 29).

DU145 (HLA-A2−) = assay: LDH-release cytotoxicity assay of STEAP-specific CTL against HLA-A2-negative control cell line; type: cell-based, human; details: CTL specific for the peptide; 4-hour LDH-release assay
Experimental: as §1

[2] = test system: K562-A2 cells pulsed with STEAP peptide; assay: Blocking of CTL lysis with antibodies BB7.2 / IVA12, LDH-release assay; type: cell-based, human; details: for Percent LDH released from K562-A2 pulsed +IVA12: anti-HLA class II antibody IVA12 added to peptide-pulsed targets before 4-hour LDH-release assay; for Percent LDH released from K562-A2 pulsed +BB7.2: anti-HLA-A2 antibody BB7.2 added to peptide-pulsed targets before 4-hour LDH-release assay
Text: As an additional control the anti-HLA class II antibody IVA12 was used. With these experiments, it was confirmed that the STEAP-specific CTL can recognize and kill target cells in a class I-restricted fashion (Table 30).

[3] = test system: K562-A2 cells pulsed with STEAP peptide; assay: In vitro induction of STEAP peptide-specific CTL, LDH-release cytotoxicity assay; details: for Percent LDH released from K562-A2 pulsed with peptide: K562-A2 pulsed with corresponding STEAP peptide 2 hours at 37° C.; for Percent LDH released from K562-A2 pulsed with peptide / Percent LDH released from K562-A2: CTL specific for the peptide, 4-hour LDH-release assay; for Induction of peptide-specific CTL: in vitro immunization of PBMC; for Percent LDH released from K562-A2: non-pulsed K562-A2 targets
TAP (human) = TAP (human) (UniProt Q03518); assay: cell-based or functional assay
[4] = test system: ICP47-transfected cells MCF7; assay: Functional blockade of TAP by ICP47, 51Cr-release from peptide-loaded cells; type: cell-based, human; details: for Percent 51Cr Released From ICP47-transfected MCF7 cells loaded with the construct: CTL reactive against the corresponding HER2/neu peptide, 3 days after peptide loading, 6-hour assay
Text: Another aspect in these studies was to determine the mechanisms of enhancement of the antigen presentation by the fusion peptides in human tumor cell lines. Therefore, a new test system was developed utilizing the Herpes Simplex virus (HSV) protein ICP47. ICP47 is a cytoplasmic protein, which interferes with antigen presentation by physically associating with TAP within the cell and inhibiting peptide transport across the ER-membrane. By transfecting the ICP47 gene into several cancer cell lines a novel system for screening different fusion peptides for TAP-independent translocation of peptide antigens through the ER-membrane was generated.
The expression of these antigens was detected by ^51Cr-release assays.

T2 cells [5] = assay: 51Cr-release assay, T2 cells loaded or pulsed with signal sequence constructs, at periods after loading; type: cell-based, human; details: loading into the cytosol; days 1-8 after loading
Text: By “loading” of the fusion peptides into the cytosol of T2 cells, cancer cells and dendritic cells is meant use of a technology called “osmotic lysis of pinocytic vesicles.” T2 cells were exposed to hypertonic medium containing the peptide constructs. Pinocytic vesicles form in this medium, and because of their increased internal osmotic pressure, they break in the cytosol when the cells are placed in hypotonic culture medium.
The induction of CTL in human PBMC was monitored in a conventional ^51Cr-labeling release assay. Briefly, peptide-pulsed TAP^−/HLA-A2.1^+ human T2 cells were incubated with 10 μg of HER2/neu peptides or the MART-1 control peptide for 90 min during labeling with ^51Cr. After washing, the target cells were added to serially diluted effectors in 96-well microplates. After a 6-h incubation at 37° C., supernatants were harvested and counted in a gamma counter. Results are expressed as the percentage of specific lysis and determined as follows: [(experimental cpm−spontaneous cpm)/(maximum cpm−spontaneous cpm)]×100.
Peptide-loaded or pulsed T2 cells were tested for their ability to present HER2/neu peptides at different periods of time after loading or pulsing.

[6] = test system: breast cancer cells MDA-MB-231; assay: 51Cr-release assay, MDA-MB-231 cells loaded or pulsed with signal sequence constructs; type: cell-based, human; details: loading; days 1-8 after loading
Experimental: ^51Cr-release assays were used to test to see if the low HER2/neu-expressing breast cancer cells MDA-MB-231 can be recognized more efficiently by the HER2/neu-specific CTL after loading with the fusion peptides.
The lysis of the tumor cells by the HER2/neu-specific CTL was monitored in a conventional ^51Cr-labeling release assay. Briefly, peptide-loaded tumor cells were added to serially diluted effectors in 96-well microplates. After a 6-h incubation at 37° C., supernatants were harvested and counted in a gamma counter. Results are expressed as the percentage of specific lysis and determined as follows: [(experimental cpm−spontaneous cpm)/(maximum cpm−spontaneous cpm)]×100.
Peptide-loaded breast cancer cells MDA-MB-231 were tested for their ability to present HER2/neu peptides at different periods of time after loading or pulsing.

[7] = test system: breast cancer cells MDA-MB-231; assay: IFNγ release by CTL (ELISA) after incubation with peptide-loaded MDA-MB-231 cells; type: cell-based, human; details: CTL elicited with the corresponding HER2/neu peptide, 20 h, 10^5 CTL/well
Experimental: In interferon gamma release assays, 10^5 HER2/neu-specific CTL were co-incubated with 10^5 peptide-loaded tumor cells for 20 hours at 37° C. The concentration of human interferon gamma in co-cultured supernatants was then determined by ELISA.

T2 cells [8] = assay: IFNγ release by CTL (ELISA) after incubation with peptide-loaded T2 cells; type: cell-based, human; details: CTL elicited with the corresponding HER2/neu peptide, 20 h, 10^5 CTL/well
Experimental: In interferon gamma-release assays, 10^5 HER2/neu-specific CTL were co-incubated with 10^5 peptide-loaded T2 cells for 20 hours at 37° C. The concentrations of human interferon gamma in co-cultured supernatants were then determined by ELISA.

HLA-A2.1 (human) = assay: cell-based or functional assay

Chain of TAP (human) (Q03518 whole entry, chain 1 of 2): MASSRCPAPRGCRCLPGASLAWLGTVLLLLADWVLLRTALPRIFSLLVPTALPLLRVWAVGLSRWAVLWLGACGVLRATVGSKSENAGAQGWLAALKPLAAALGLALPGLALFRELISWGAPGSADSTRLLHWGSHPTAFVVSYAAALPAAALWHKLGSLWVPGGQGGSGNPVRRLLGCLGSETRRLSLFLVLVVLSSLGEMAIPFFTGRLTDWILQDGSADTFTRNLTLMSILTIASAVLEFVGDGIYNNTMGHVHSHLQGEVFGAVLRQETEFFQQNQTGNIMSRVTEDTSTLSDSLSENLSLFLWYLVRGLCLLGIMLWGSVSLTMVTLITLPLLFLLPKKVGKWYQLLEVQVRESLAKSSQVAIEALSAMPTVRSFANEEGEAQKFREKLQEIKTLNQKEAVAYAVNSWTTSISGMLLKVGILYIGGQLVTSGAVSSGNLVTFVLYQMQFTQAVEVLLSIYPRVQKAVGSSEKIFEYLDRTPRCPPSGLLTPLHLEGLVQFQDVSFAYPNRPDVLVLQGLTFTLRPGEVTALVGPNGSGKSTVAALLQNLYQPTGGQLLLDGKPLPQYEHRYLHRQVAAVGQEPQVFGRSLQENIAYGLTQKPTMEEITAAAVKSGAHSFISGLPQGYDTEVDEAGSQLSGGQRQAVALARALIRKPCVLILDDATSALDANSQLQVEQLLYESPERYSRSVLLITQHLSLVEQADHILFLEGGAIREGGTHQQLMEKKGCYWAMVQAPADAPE
Chain of TAP (human) (Q03519 whole entry, chain 2 of 2, further chain): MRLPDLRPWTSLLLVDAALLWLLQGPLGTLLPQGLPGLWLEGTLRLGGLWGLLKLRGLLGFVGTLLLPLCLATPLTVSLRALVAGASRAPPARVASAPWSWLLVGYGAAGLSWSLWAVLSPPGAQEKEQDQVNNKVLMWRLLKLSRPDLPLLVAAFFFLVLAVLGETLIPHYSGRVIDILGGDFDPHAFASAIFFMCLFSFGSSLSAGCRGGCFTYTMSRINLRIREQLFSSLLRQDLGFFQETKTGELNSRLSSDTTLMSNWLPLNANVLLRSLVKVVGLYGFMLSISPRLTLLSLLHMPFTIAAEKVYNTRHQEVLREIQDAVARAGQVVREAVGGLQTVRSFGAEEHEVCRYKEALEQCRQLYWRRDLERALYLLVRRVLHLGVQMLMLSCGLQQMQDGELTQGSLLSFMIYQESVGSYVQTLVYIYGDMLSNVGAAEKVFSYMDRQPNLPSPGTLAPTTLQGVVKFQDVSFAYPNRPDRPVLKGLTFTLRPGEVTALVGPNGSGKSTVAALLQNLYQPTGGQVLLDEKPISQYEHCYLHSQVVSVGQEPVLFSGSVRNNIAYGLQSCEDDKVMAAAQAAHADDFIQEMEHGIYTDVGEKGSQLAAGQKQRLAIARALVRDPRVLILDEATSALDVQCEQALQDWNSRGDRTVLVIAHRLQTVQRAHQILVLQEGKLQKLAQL

Compound	Percent LDH released from LnCap (HLA-A2+) (LnCap (HLA-A2+)) [%]	Percent LDH released from DU145 (HLA-A2−) (DU145 (HLA-A2−)) [%]	Percent LDH released from K562-A2 pulsed +IVA12 [2] [%]	Percent LDH released from K562-A2 pulsed +BB7.2 [2] [%]	Percent LDH released from K562-A2 pulsed with peptide [3] [%]	Induction of peptide-specific CTL [3]	Percent LDH released from K562-A2 [3] [%]	other results
C[C@H]1CCC/C=C/[C@@H]2C[C@H](O)C[C@H]2[C@H](O)/C=C/C(=O)O1 [Brefeldin A]								Blocking of recognition of peptide-loaded tumor cells by HER2/neu-specific CTL [1]: specifically blocks the recognition
FLPGVIAAI [STEAP130-138 - 1F]	73	−1	69	2	75	induced potent peptide-specific CTL	4	
FLWGVIAAV [STEAP130-138 - 1F/3W/9V]	84	1	75	1	74	induced potent peptide-specific CTL	1	
Herpes Simplex virus (HSV) protein ICP47 (from UniProt P03170 1-88)								Percent 51Cr released from MCF7-ICP47 (CTL369-377, E:T 20:1; 29 for untransfected MCF7) (percent 51Cr released) (TAP (human)): 3; Percent 51Cr released from MCF7-ICP47 (CTL369-377, E:T 40:1; 62 for untransfected MCF7) (percent 51Cr released) (TAP (human)): 3; Percent 51Cr released from MCF7-ICP47 (CTL654-662, E:T 20:1; 31 for untransfected MCF7) (percent 51Cr released) (TAP (human)): 2; Percent 51Cr released from MCF7-ICP47 (CTL654-662, E:T 40:1; 74 for untransfected MCF7) (percent 51Cr released) (TAP (human)): 4
LLNWAYQQV (listed as Homo sapiens) [STEAP192-200]	43	18	30	7	56	induced potent peptide-specific CTL	8	Induction of peptide-specific CTL in patients with prostate cancer ([3]; number of patients): three out of three
LLSFFFAVL (listed as Homo sapiens) [STEAP166-174]	65	4	47	11	43	induced potent peptide-specific CTL	3	
M A IISAVVGIL A A A A A G (MAIISAVVGILAAAAAG) [HER654-662-IN-AF]								Restoration of antigen presentation in ICP47-transfected breast cancer cells ([4]; 51Cr-release): able to restore the antigen presentation; Percent 51Cr Released From ICP47-transfected MCF7 cells loaded with the construct ([4]; E:T 20:1): 22%; Percent 51Cr Released From ICP47-transfected MCF7 cells loaded with the construct ([4]; E:T 40:1): 66%; Recognition by CTL of T2 cells loaded with the peptide (51Cr-release) (T2 cells [5]): effective; Recognition by CTL of MDA-MB-231 cells loaded with the peptide (51Cr-release) [6]: effective; Release of IFNγ by CTL, MDA-MB-231 cells loaded with the peptide ([7]; Day 1 after peptide loading): 3321 pg/mL; Release of IFNγ by CTL, MDA-MB-231 cells loaded with the peptide ([7]; Day 3 after peptide loading): 2994 pg/mL; Release of IFNγ by CTL, MDA-MB-231 cells loaded with the peptide ([7]; Day 5 after peptide loading): 1933 pg/mL; Release of IFNγ by CTL, MDA-MB-231 cells loaded with the peptide ([7]; Day 8 after peptide loading): 899 pg/mL; Release of IFNγ by CTL, T2 cells loaded with the peptide (T2 cells [8]; Day 1 after peptide loading): 3321 pg/mL; Release of IFNγ by CTL, T2 cells loaded with the peptide (T2 cells [8]; Day 3 after peptide loading): 2981 pg/mL; Release of IFNγ by CTL, T2 cells loaded with the peptide (T2 cells [8]; Day 5 after peptide loading): 1892 pg/mL; Release of IFNγ by CTL, T2 cells loaded with the peptide (T2 cells [8]; Day 8 after peptide loading): 881 pg/mL
MA HLYQGCQVV AAAAAG (MAHLYQGCQVVAAAAAG) [HER48-56-IN-AF]								Recognition by CTL of T2 cells loaded with the peptide (51Cr-release) (T2 cells [5]): effective; Release of IFNγ by CTL, T2 cells loaded with the peptide (T2 cells [8]; Day 1 after peptide loading): 3488 pg/mL; Release of IFNγ by CTL, T2 cells loaded with the peptide (T2 cells [8]; Day 3 after peptide loading): 1229 pg/mL; Release of IFNγ by CTL, T2 cells loaded with the peptide (T2 cells [8]; Day 5 after peptide loading): 1010 pg/mL; Release of IFNγ by CTL, T2 cells loaded with the peptide (T2 cells [8]; Day 8 after peptide loading): 718 pg/mL
YLPGVIAAI (listed as Homo sapiens) [STEAP130-138]	53	−1	37	2	63	induced potent peptide-specific CTL	1	
YLPGVIAAV [STEAP130-138 - 9V]	68	−2	47	1	53	induced potent peptide-specific CTL	1	
YLWGVIAAI [STEAP130-138 - 3W]	69	−2	64	5	63	induced potent peptide-specific CTL	4	
anti-HLA-A2 antibody BB7.2								Percent LDH released from peptide-pulsed K562-A2 +BB7.2 (CTL specific for STEAP130-138 -1F/3W/9V; 74 without antibody) (percent LDH released) (HLA-A2.1 (human)): 1; Percent LDH released from peptide-pulsed K562-A2 +BB7.2 (CTL specific for STEAP130-138 -1F; 75 without antibody) (percent LDH released) (HLA-A2.1 (human)): 2; Percent LDH released from peptide-pulsed K562-A2 +BB7.2 (CTL specific for STEAP130-138 -3W; 63 without antibody) (percent LDH released) (HLA-A2.1 (human)): 5; Percent LDH released from peptide-pulsed K562-A2 +BB7.2 (CTL specific for STEAP130-138 -9V; 53 without antibody) (percent LDH released) (HLA-A2.1 (human)): 1; Percent LDH released from peptide-pulsed K562-A2 +BB7.2 (CTL specific for STEAP130-138; 63 without antibody) (percent LDH released) (HLA-A2.1 (human)): 2; Percent LDH released from peptide-pulsed K562-A2 +BB7.2 (CTL specific for STEAP192-200; 56 without antibody) (percent LDH released) (HLA-A2.1 (human)): 7
